Measured values taken from patent publication US12421249B2, “Inhibitors of APOL1 and methods of using same” (Vertex Pharmaceuticals Incorporated, priority 2020, dated 2025).

Target: T1, APOL1 G1 (Homo sapiens, UniProt O14791, I384M/S342G)
T1 sequence (O14791 28-398 S342G/I384M): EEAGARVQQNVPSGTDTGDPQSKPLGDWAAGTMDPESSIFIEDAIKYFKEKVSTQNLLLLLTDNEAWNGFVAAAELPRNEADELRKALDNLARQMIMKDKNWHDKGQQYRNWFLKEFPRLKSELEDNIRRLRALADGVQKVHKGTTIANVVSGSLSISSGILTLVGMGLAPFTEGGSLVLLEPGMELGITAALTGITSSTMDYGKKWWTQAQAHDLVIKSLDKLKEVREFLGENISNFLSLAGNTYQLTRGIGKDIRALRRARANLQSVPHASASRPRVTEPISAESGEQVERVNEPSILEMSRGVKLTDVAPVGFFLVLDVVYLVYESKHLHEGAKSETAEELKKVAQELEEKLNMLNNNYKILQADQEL
Assay: MultiTox-Fluor Multiplex Cytotoxicity Assay in tet-inducible APOL1 G1 T-REx-HEK293 cells (clone G1 DC3.25)
Format: cell-based
Set-up: expressed in transfected cells; host or cells: T-REx HEK293, pAAVS1-Puro-APOL1 G1, clone G1 DC3.25
Details: Multi-Tox Assay, APOL1 variant cell line not given; for IC50: IP50 = IC50 for cell proliferation; for Emax: read-out: Multi-Tox Assay Max Activity (%)
Protocol: The MultiTox-Fluor Multiplex Cytotoxicity Assay is a single-reagent-addition, homogeneous, fluorescence assay that measures the number of live and dead cells simultaneously in culture wells. The assay measures cell viability and cytotoxicity by detecting two distinct protease activities. The live-cell protease activity is restricted to intact viable cells and is measured using a fluorogenic, cell-permeant peptide glycyl-phenylalanylamino fluorocoumarin (GF-AFC) substrate. The substrate enters intact cells, where it is cleaved to generate a fluorescent signal proportional to the number of living cells. […] A second, cell-impermeant, fluorogenic peptide substrate (bis-AAF-R110 Substrate) is used to measure dead-cell protease that has been released from cells that have lost membrane integrity. A ratio of dead to live cells is used to normalize data.
Briefly, the tet-inducible transgenic APOL1 T-REx-HEK293 cell lines were incubated with 50 ng/mL tet to induce APOL1 in the presence of 3-(2-(4-fluorophenyl)-1H-indol-3-yl)-N-((3S,4R)-4-hydroxy-2-oxopyrrolidin-3-yl)propenamide at […], 0.0045, 0.0015, 0.0005 μM in duplicate for 24 hours in a humidified 37° C. incubator. The MultiTox reagent was added to each well and placed back in the incubator for an additional 30 minutes. The plate was read on the EnVision plate reader. A ratio of dead to live cells was used to normalize, and data was imported, analyzed and fit using Genedata Screener (Basel, Switzerland) software. Data was normalized using percent of control, no tet (100% viability), and 50 ng/mL tet treated (0% viability), and fit using Smart Fit. The reagents, methods, and complete protocol for the MultiTox assay are described below.
Human embryonic kidney (HEK293) cell lines containing a tet-inducible expression system (T-REx™; Invitrogen, Carlsbad, CA) and Adeno-associated virus site 1 pAAVS1-Puro-APOL1 G0 or pAAVS1-Puro-APOL1 G1 or pAAVS1-Puro-APOL1 G2 Clones G0 DC2.13, G1 DC3.25, and G2 DC4.44 were grown in a T-225 flask at ˜90% confluency in cell growth media (DMEM, 10% Tet-free FBS, 2 mM L-glutamine, 100 Units/mL penicillin-streptomycin, 5 μg/mL blasticidin S HCl, 1 μg/mL puromycin dihydrochloride). Cells were washed with DPBS and then trypsinized to dissociate from the flask. Media was used to quench the trypsin, cells were then pelleted at 200 g and resuspended in fresh cell assay media (DMEM, 2% Tet-free FBS, 2 mM L-glutamine, 100 Units/mL penicillin-streptomycin). Cells were counted and diluted to 1.17×10^6 cells/mL. 20 μL of cells (23,400/well) were dispensed to every well of a 384-well Poly-D-Lysine coated plate using the Multidrop dispenser. The plates were then incubated at room temperature for one hour.
Tetracycline is needed to induce APOL1 expression. 1 mg/mL tet stock in water was diluted to 250 ng/mL (5×) in cell assay media. 60 μL of cell assay media (no tet control) was dispensed in columns 1 and 24, and 60 μL of 5× tet was dispensed in 384-PP-round bottom plate in columns 2 to 23 with the Multidrop dispenser.
Assay ready plates from the Global Compound Archive were ordered using template 384_APOL1Cell_DR10n2_50 μM_v3. Compounds were dispensed at 200 nL in DMSO. The final top concentration was 10 μM with a 10 point 3-fold dilution in duplicate in the MultiTox assay.
20 μL were transferred from the 5× tet plate to the ARP and mixed, then 5 μL of 5× tet and the compounds were transferred to the cell plate and mixed using the Bravo. The cell plate was placed in the humidified 37° C. 5% CO2 incubator for 24 hours.
The MultiTox-Fluor Multiplex Cytotoxicity Assay was performed in accordance with the manufacturer's protocol. After cells were incubated with tet and compound for 24 hours, 25 μL of 1× MultiTox reagent was added to each well using the Multidrop dispenser; the plates were placed on a plate shaker (600 rpm) for 2 minutes, then centrifuged briefly and placed back in the 37° C. incubator for 30 minutes. […]

Molecule `Cn1cc(C2CC3(CC(C(F)F)N2)OCCc2cc(C(F)(F)F)sc23)nn1` (stereo not drawn) [Compound 389, 2′-(difluoromethyl)-6′-(1-methyltriazol-4-yl)-2-(trifluoromethyl)spiro[4,5-dihydrothieno[2,3-c]pyran-7,4′-piperidine]] has an IC50 of 50 to 500 nM.

`CC(=O)NC1([C@@H]2C[C@]3(C[C@H](C)N2)OCCc2cc(Cl)sc23)CC1` [Compound 379, N-[1-[(2′S,6′S, 7S)-2-chloro-6′-methyl-spiro[4,5-dihydrothieno[2,3-c]pyran-7,4′-piperidine]-2′-yl]cyclopropyl]acetamide] gave an Emax of 94% and an IC50 of over 500 nM.

For `C[C@H]1C[C@@]2(C[C@@H](c3cn(CC#N)nn3)N1)OCC(F)(F)c1cc(Cl)sc12` [Compound 369], the Emax was 98%.

Molecule `Cn1cc([C@@H]2C[C@]3(C[C@H](C4CC4)N2)OC[C@@H](O)c2cc(Cl)sc23)nn1` [Compound 382, (2′R,4S,6′S, 7S)-2-chloro-2′-cyclopropyl-6′-(1-methyltriazol-4-yl)spiro[4,5-dihydrothieno[2,3-c]pyran-7,4′-piperidine]-4-ol] has an IC50 of under 50 nM.

Molecule `CCOC(=O)C1CC1[C@@H]1C[C@]2(C[C@H](C)N1)OCCc1cc(Cl)sc12` (stereo in doubt) [Compound 375] has an IC90 of 50 to 500 nM and an IC50 of under 50 nM.

`C[C@H]1C[C@@]2(C[C@@H](c3cn(CCC(C)(C)O)nn3)N1)OCC(F)(F)c1cc(Cl)sc12` [Compound 367] showed an Emax of 99% and an IC50 of under 50 nM.

`C[C@H]1C[C@@]2(C[C@@H](c3cn(Cc4ccc5nc(O)[nH]c5c4)nn3)N1)OCC(F)(F)c1cc(Cl)sc12` [Compound 366] gave an Emax of 95%.

`C[C@H]1C[C@@]2(C[C@@H](c3cn(Cc4cncs4)nn3)N1)OCC(F)(F)c1cc(Cl)sc12` [Compound 365] showed an Emax of 99% and an IC50 of under 50 nM.

`C[C@H]1C[C@@]2(C[C@@H](c3cn(C)nn3)N1)OC[C@@H](O)c1cc(C(F)(F)F)sc12` [Compound 386, (2S,4S,4′S,6S)-2-methyl-6-(1-(methyl-^13C-d3)-1H-1,2,3-triazol-4-yl)-2′-(trifluoromethyl)-4′,5′-dihydrospiro[piperidine-4,7′-thieno[2,3-c]pyran]-5-^13C-4′-ol] showed an IC90 of under 50 nM and an IC50 of under 50 nM.

`C[C@H](CO)Cn1cc([C@@H]2C[C@]3(C[C@H](C)N2)OCC(F)(F)c2cc(Cl)sc23)nn1` [Compound 371] gave an IC90 of 50 to 500 nM, an Emax of 99% and an IC50 of under 50 nM.

Work on `C[C@H]1C[C@@]2(C[C@@H](c3cn(C)nn3)N1)OCC(C)(O)c1cc(C(F)(F)F)sc12` (stereo partly drawn) [Compound 384, (2′S,6′S, 7S)-2′,4-dimethyl-6′-(1-methyltriazol-4-yl)-2-(trifluoromethyl)spiro[5H-thieno[2,3-c]pyran-7,4′-piperidine]-4-ol] yielded an IC50 of under 50 nM.

`CCOC(=O)C1CC1[C@@H]1C[C@]2(C[C@H](C)N1)OCCc1cc(Cl)sc12` (stereo in doubt) [Compound 374] was tested, and the IC90 was 50 to 500 nM, the Emax was 99% and the IC50 was under 50 nM.

For `C[C@H]1C[C@@]2(C[C@@H](C3(N(C)C)CC3)N1)OCCc1cc(Cl)sc12` (racemic) [Compound 378], the IC90 was 50 to 500 nM, the Emax was 99% and the IC50 was under 50 nM.

`C[C@H]1C[C@@]2(C[C@@H](C3(CO)CC3)N1)OCCc1cc(Cl)sc12` [Compound 380, [1-[(2′S,6′S, 7S)-2-chloro-6′-methyl-spiro[4,5-dihydrothieno[2,3-c]pyran-7,4′-piperidine]-2′-yl]cyclopropyl]methanol] was tested, and the Emax was 99% and the IC50 was under 50 nM.

`C[C@H]1C[C@@]2(C[C@@H](C3(N)CC3)N1)OCCc1cc(Cl)sc12` [Compound 373, 1-[(2′S,6′S,7S)-2-chloro-6′-methyl-spiro[4,5-dihydrothieno[2,3-c]pyran-7,4′-piperidine]-2′-yl]cyclopropanamine] showed an Emax of 99% and an IC50 of under 50 nM.

In the case of `COC(=O)C1([C@@H]2C[C@]3(C[C@H](C)N2)OCCc2cc(Cl)sc23)CC1` [Compound 372, methyl 1-[(2′S, 6′S, 7S)-2-chloro-6′-methyl-spiro[4,5-dihydrothieno[2,3-c]pyran-7,4′-piperidine]-2′-yl]cyclopropanecarboxylate], the Emax is reported as 92% and the IC50 is reported as over 500 nM.

`C[C@H]1C[C@@]2(C[C@@H](c3cn(C[C@@H](O)CO)nn3)N1)OCC(F)(F)c1cc(Cl)sc12` [Compound 363] was tested, and the Emax was 99% and the IC50 was under 50 nM.

`C[C@H]1C[C@@]2(C[C@@H](C3(C#N)CC3)N1)OCCc1cc(Cl)sc12` (racemic) [Compound 377] showed an IC90 of over 500 nM, an Emax of 98% and an IC50 of 50 to 500 nM.

Molecule `C[C@H]1C[C@@]2(C[C@@H](c3cn(CC4CCC(=O)NC4)nn3)N1)OCC(F)(F)c1cc(Cl)sc12` (stereo partly drawn) [Compound 368] has an Emax of 96%.

Molecule `COCC1([C@@H]2C[C@]3(C[C@H](C)N2)OCCc2cc(Cl)sc23)CC1` (racemic) [Compound 376] has an IC90 of 50 to 500 nM, an Emax of 99% and an IC50 of 50 to 500 nM.

For `Cn1cc(C2CC3(CC(C(F)F)N2)OCCc2cc(Cl)sc23)nn1` (stereo not drawn) [Compound 388, 2-chloro-2′-(difluoromethyl)-6′-(1-methyltriazol-4-yl)spiro[4,5-dihydrothieno[2,3-c]pyran-7,4′-piperidine]], the IC50 was over 500 nM.

`COc1ccc(Cn2cc([C@@H]3C[C@]4(C[C@H](C)N3)OCC(F)(F)c3cc(Cl)sc34)nn2)cc1F` [Compound 362] gave an Emax of 98%.

Molecule `Cn1cc([C@@H]2C[C@]3(C[C@H](C4CC4)N2)OCCc2cc(Cl)sc23)nn1` [Compound 381, (2′R,6′S, 7S)-2-chloro-2′-cyclopropyl-6′-(1-methyltriazol-4-yl)spiro[4,5-dihydrothieno[2,3-c]pyran-7,4′-piperidine]] has an IC50 of under 50 nM.
